Here are results for 35 molecules from patent US11957687B2 (REGENERON PHARMACEUTICALS, INC., priority 2019, dated 2024).

This test addresses HSD17B13 (Homo sapiens (Human), UniProt Q7Z5P4). As to the kind of experiment: HSD17B13 enzymatic inhibition assay (150 nM or 50 nM HSD17B13). The test is classed as biochemical. Particulars: 50 nM HSD17B13; read-out: Inhibition of 50 nM of HSD17B13 IC50.

Chain of HSD17B13 (Q7Z5P4 other isoform, or with tags, fused parts or gaps): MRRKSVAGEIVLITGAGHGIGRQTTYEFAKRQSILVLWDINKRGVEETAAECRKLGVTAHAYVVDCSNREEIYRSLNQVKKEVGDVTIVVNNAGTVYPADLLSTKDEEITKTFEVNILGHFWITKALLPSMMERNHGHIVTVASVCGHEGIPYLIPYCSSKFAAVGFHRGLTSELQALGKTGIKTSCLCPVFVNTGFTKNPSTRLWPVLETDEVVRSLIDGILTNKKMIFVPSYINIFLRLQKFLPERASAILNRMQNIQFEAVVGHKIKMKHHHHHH

A word on the IC50: it is the concentration at which inhibition is half-maximal. In the case of `O=C(NC(c1ccccc1)c1ccc(N2CCOCC2)cc1)c1ccc(C(F)(F)F)[nH]c1=O` (centres unmarked) [Compound 48, N-((4-morpholinophenyl)(phenyl)methyl)-2-oxo-6-(trifluoromethyl)-1,2-dihydropyridine-3-carboxamide], the half-inhibitory concentration (IC50) worked out at 2490 nM.
On to `N#Cc1ccc(C(NC(=O)c2ccc(C(F)(F)F)[nH]c2=O)c2ccc(C#N)cc2)cc1` [Compound 49, N-(bis(4-cyanophenyl)methyl)-2-oxo-6-(trifluoromethyl)-1,2-dihydropyridine-3-carboxamide], for which the IC50 came out at 980 nM.
Regarding `COc1ccc2c(c1)Oc1ccccc1C2NC(=O)c1ccc(C(F)(F)F)[nH]c1=O` (centres unmarked) [Compound 54, N-(3-methoxy-9H-xanthen-9-yl)-2-oxo-6-(trifluoromethyl)-1,2-dihydropyridine-3-carboxamide], the concentration for half-maximal inhibition (IC50) was 1480 nM.
In the case of `COc1ccc2c(c1)Oc1cc(OC)ccc1C2NC(=O)c1ccc(C(F)(F)F)[nH]c1=O` [Compound 56, N-(3,6-dimethoxy-9H-xanthen-9-yl)-2-oxo-6-(trifluoromethyl)-1,2-dihydropyridine-3-carboxamide], the 50% inhibitory concentration (IC50) came to 440 nM.
On to `COc1ccc2c(c1)Oc1cccc(OC)c1C2NC(=O)c1ccc(C(F)(F)F)[nH]c1=O` (centres unmarked) [Compound 57, N-(1,6-dimethoxy-9H-xanthen-9-yl)-2-oxo-6-(trifluoromethyl)-1,2-dihydropyridine-3-carboxamide], for which the IC50 amounted to 460 nM.
For `O=C(NC(c1ccccc1)C1CCCCC1)c1ccc(C(F)(F)F)[nH]c1=O` (centres unmarked) [Compound 58, N-(cyclohexyl(phenyl)methyl)-2-oxo-6-(trifluoromethyl)-1,2-dihydropyridine-3-carboxamide], the IC50 is 2890 nM.
As for `O=C(NC1c2ccccc2-c2ccccc21)c1cnc(Cc2ccccc2)[nH]c1=O` [Compound 59, 2-benzyl-N-(9H-fluoren-9-yl)-6-oxo-1,6-dihydropyrimidine-5-carboxamide], the figure is above 10000 nM; as for `O=C(Nc1cc(-c2ccccc2)cc(-c2ccccc2)c1)c1ccc(C(F)(F)F)[nH]c1=O` [Compound 60, N-([1,1′:3′,1″-terphenyl]-5′-yl)-2-oxo-6-(trifluoromethyl)-1,2-dihydropyridine-3-carboxamide], above 10000 nM; as for `Cc1ccc(C(NC(=O)c2ccc(C(F)F)[nH]c2=O)c2ccc(C)cc2)cc1` [Compound 61, N-(di-p-tolylmethyl)-6-(difluoromethyl)-2-oxo-1,2-dihydropyridine-3-carboxamide], 2250 nM.
The figure for `Cc1cccc(C(NC(=O)c2ccc(C(F)(F)F)[nH]c2=O)c2cccc(C)c2)c1` [Compound 62, N-(di-m-tolylmethyl)-6-(trifluoromethyl)-2-oxo-1,2-dihydropyridine-3-carboxamide] is 1110 nM; for `CC(=O)Nc1ccc(C(NC(=O)c2ccc(C(F)(F)F)[nH]c2=O)c2ccccc2)cc1` (centres unmarked) [Compound 66, N-((4-acetamidophenyl)(phenyl)methyl)-2-oxo-6-(trifluoromethyl)-1,2-dihydropyridine-3-carboxamide] it is 7220 nM; for `O=C(NC(c1ccc(Cl)cc1)c1ccccn1)c1ccc(C(F)(F)F)[nH]c1=O` (centres unmarked) [Compound 67, N-((4-chlorophenyl)(pyridin-2-yl)methyl)-2-oxo-6-(trifluoromethyl)-1,2-dihydropyridine-3-carboxamide] it is 2270 nM.
Take `O=C(NC(c1ccncc1)c1ccc(Cl)cc1)c1ccc(C(F)(F)F)[nH]c1=O` (centres unmarked) [Compound 68, N-((4-chlorophenyl)(pyridin-4-yl)methyl)-2-oxo-6-(trifluoromethyl)-1,2-dihydropyridine-3-carboxamide]: the half-inhibitory concentration (IC50) was 2530 nM.
With `O=C(NC(c1ccc(Cl)cc1)c1cccnc1)c1ccc(C(F)(F)F)[nH]c1=O` (centres unmarked) [Compound 69, N-((4-chlorophenyl)(pyridin-3-yl)methyl)-2-oxo-6-(trifluoromethyl)-1,2-dihydropyridine-3-carboxamide], the IC50 was found to be 2590 nM.
Take `O=C(NC(c1ccc(Cl)cc1)c1cnccn1)c1ccc(C(F)(F)F)[nH]c1=O` (centres unmarked) [Compound 70, N-((4-chlorophenyl)(pyrazin-2-yl)methyl)-2-oxo-6-(trifluoromethyl)-1,2-dihydropyridine-3-carboxamide]: the IC50 is above 10000 nM.
`O=C(NC(c1ccc(Cl)cc1)c1ncccn1)c1ccc(C(F)(F)F)[nH]c1=O` (centres unmarked) [Compound 71, N-((4-chlorophenyl)(pyrimidin-2-yl)methyl)-2-oxo-6-(trifluoromethyl)-1,2-dihydropyridine-3-carboxamide]: the IC50 amounted to 5850 nM.
Regarding `O=C(NC(c1ccccc1)c1cccc(Br)n1)c1ccc(C(F)(F)F)[nH]c1=O` (centres unmarked) [Compound 72, N-((6-bromopyridin-2-yl)(phenyl)methyl)-2-oxo-6-(trifluoromethyl)-1,2-dihydropyridine-3-carboxamide], the IC50 amounted to 7050 nM.
Consider `O=C(NC(c1ccncc1)c1ccncc1)c1ccc(C(F)(F)F)[nH]c1=O` [Compound 73, N-(di(pyridin-4-yl)methyl)-2-oxo-6-(trifluoromethyl)-1,2-dihydropyridine-3-carboxamide], for which the IC50 is above 10000 nM.
Consider `O=C(Cc1ccccc1)Nc1ccc(C(NC(=O)c2ccc(C(F)(F)F)[nH]c2=O)c2ccccc2)cc1` (centres unmarked) [Compound 74, N-(phenyl(4-(2-phenylacetamido)phenyl)methyl)-2-oxo-6-(trifluoromethyl)-1,2-dihydropyridine-3-carboxamide], for which the IC50 turned out to be 1370 nM.
On to `O=C(Nc1ccc(C(NC(=O)c2ccc(C(F)(F)F)[nH]c2=O)c2ccccc2)cc1)c1ccccc1` (centres unmarked) [Compound 75, N-((4-benzamidophenyl)(phenyl)methyl)-2-oxo-6-(trifluoromethyl)-1,2-dihydropyridine-3-carboxamide], for which the half-maximal inhibitory concentration (IC50) came to 1870 nM.
In the case of `O=C(NC(c1ccccc1)c1ccc(C2CCOCC2)cc1)c1ccc(C(F)(F)F)[nH]c1=O` (centres unmarked) [Compound 76, N-(phenyl(4-(tetrahydro-2H-pyran-4-yl)phenyl)methyl)-2-oxo-6-(trifluoromethyl)-1,2-dihydropyridine-3-carboxamide], the IC50 was found to be 1700 nM.
On to `O=C(NC(c1ccccc1)c1ccc(C2CCC2)cc1)c1ccc(C(F)(F)F)[nH]c1=O` (centres unmarked) [Compound 77, N-((4-cyclobutylphenyl)(phenyl)methyl)-2-oxo-6-(trifluoromethyl)-1,2-dihydropyridine-3-carboxamide], for which the IC50 stood at 680 nM.
Take `COc1ccc(C(NC(=O)c2c(C)cc(C(F)(F)F)[nH]c2=O)c2ccccc2)cc1` (centres unmarked) [Compound 78, N-((4-methoxyphenyl)(phenyl)methyl)-4-methyl-2-oxo-6-(trifluoromethyl)-1,2-dihydropyridine-3-carboxamide]: the IC50 was 1340 nM.
Take `O=C(NC(c1ccccc1OC(F)(F)F)c1ccccc1OC(F)(F)F)c1ccc(C(F)(F)F)[nH]c1=O` [Compound 79, N-(bis(2-(trifluoromethoxy)phenyl)methyl)-2-oxo-6-(trifluoromethyl)-1,2-dihydropyridine-3-carboxamide]: the IC50 amounted to 2330 nM.
As for `O=C(NC(c1ccccc1)c1ccc2c(c1)CCCO2)c1ccc(C(F)(F)F)[nH]c1=O` (centres unmarked) [Compound 81, N-(chroman-6-yl(phenyl)methyl)-2-oxo-6-(trifluoromethyl)-1,2-dihydropyridine-3-carboxamide], the figure is 1090 nM; as for `O=C(NC(c1ccccc1)c1ccc2c(c1)CCOC2)c1ccc(C(F)(F)F)[nH]c1=O` (centres unmarked) [Compound 82, N-(isochroman-6-yl(phenyl)methyl)-2-oxo-6-(trifluoromethyl)-1,2-dihydropyridine-3-carboxamide], 840 nM; as for `O=C(NC(c1ccccc1)c1ccc2c(c1)COCC2)c1ccc(C(F)(F)F)[nH]c1=O` (centres unmarked) [Compound 83, N-(isochroman-7-yl(phenyl)methyl)-2-oxo-6-(trifluoromethyl)-1,2-dihydropyridine-3-carboxamide], 2370 nM.
For the molecule `O=C(NC(c1ccccc1)c1ccc2c(c1)OCC2)c1ccc(C(F)(F)F)[nH]c1=O` (centres unmarked) [Compound 84, N-((2,3-dihydrobenzofuran-6-yl)(phenyl)methyl)-2-oxo-6-(trifluoromethyl)-1,2-dihydropyridine-3-carboxamide], the IC50 is 1040 nM.
The figure for `O=C(NC(c1ccccc1)c1ccc(-c2ccncc2)cc1)c1ccc(C(F)(F)F)[nH]c1=O` (centres unmarked) [Compound 85, 2-oxo-N-(phenyl(4-(pyridin-4-yl)phenyl)methyl)-6-(trifluoromethyl)-1,2-dihydropyridine-3-carboxamide] is 840 nM; for `O=C(NC(c1ccccc1)c1ccc(C2CCOC2)cc1)c1ccc(C(F)(F)F)[nH]c1=O` (centres unmarked) [Compound 86, N-(phenyl(4-(tetrahydrofuran-3-yl)phenyl)methyl)-2-oxo-6-(trifluoromethyl)-1,2-dihydropyridine-3-carboxamide] it is 1940 nM; for `O=C(NC(c1ccccc1)c1ccc(C2=CCOC2)cc1)c1ccc(C(F)(F)F)[nH]c1=O` (centres unmarked) [Compound 87, N-((4-(2,5-dihydrofuran-3-yl)phenyl)(phenyl)methyl)-2-oxo-6-(trifluoromethyl)-1,2-dihydropyridine-3-carboxamide] it is 1130 nM.
As to `O=C(NC(c1ccccc1)c1ccc(N2CCNCC2)cc1)c1ccc(C(F)(F)F)[nH]c1=O` (centres unmarked) [Compound 88, N-(phenyl(4-(piperazin-1-yl)phenyl)methyl)-2-oxo-6-(trifluoromethyl)-1,2-dihydropyridine-3-carboxamide], the IC50 was above 10000 nM.
As for `O=C(NC(c1ccccc1)c1ccc2c(c1)OCCC2)c1ccc(C(F)(F)F)[nH]c1=O` (centres unmarked) [Compound 89, N-(chroman-7-yl(phenyl)methyl)-2-oxo-6-(trifluoromethyl)-1,2-dihydropyridine-3-carboxamide], the figure is 1090 nM; as for `O=C(NC(c1ccccc1)c1ccc2c(c1)CCC2)c1ccc(C(F)(F)F)[nH]c1=O` (centres unmarked) [Compound 90, N-((2,3-dihydro-1H-inden-5-yl)(phenyl)methyl)-2-oxo-6-(trifluoromethyl)-1,2-dihydropyridine-3-carboxamide], 520 nM; as for `O=C(NC(c1ccccc1)c1ccc2c(c1)CCO2)c1ccc(C(F)(F)F)[nH]c1=O` (centres unmarked) [Compound 91, N-((2,3-dihydrobenzofuran-5-yl)(phenyl)methyl)-2-oxo-6-(trifluoromethyl)-1,2-dihydropyridine-3-carboxamide], 920 nM.
